Data on 1 molecule can be found in patent publication US5273985A, “Glycerin derivative and its pharmacological use” (Eisai Co., Ltd., priority 1988, dated 1993).

SMILES strings stand for the structures.

For data set [1], the system named is platelet agglutination caused by PAF. The data set is described as follows: Inhibition of platelet agglutination caused by human PAF (platelet-rich plasma, optical method of Born). The format is cell-based. To be noted: PAF at minimum concentration for maximum agglutination, read-out: Agglutination inhibiting activity IC50. How it is done: Effect on the Agglutination Caused by Human PAF
One part by volume of a 3.8% sodium citrate solution was added to 9 parts by volume of blood sampled from the forearm of a healthy adult to whom had been administered no medicine for at least two weeks. A platelet-rich plasma (PRP) was prepared by centrifugation. The inhibition of the platelet agglutination was determined by an optical method of Born et al. with a Hematolaser II® (a platelet agglutination meter of Niko Bioscience Co.). PAF was dissolved in Tyrode solution [Ca^++ (+)] to form a solution having the minimum concentration for causing the maximum agglutination. The test compound was dissolved in a physiological saline.
The agglutination inhibiting activity of the test compound was determined from the rate of inhibition of the maximum light transmittance (maximum agglutination rate) caused by PAF in control PRP. IC50 was determined from the inhibition curve.
The numeral in the column of the Test compound in Table 1 refers to the Example number of the compound.

The next data set addresses T1, Human PAF Receptor (Homo sapiens, UniProt P25105).
T1 construct: The platelets were sampled from healthy males by an ordinary method; endogenous in cells; host or cells: human platelets from healthy males (intact platelet suspension)
Put plainly: Human PAF receptor binding assay (3H-PAF, platelets). The following applies: 3H-PAF 0.6 to 1 nM, 37° C., read-out: PAF receptor antagonism IC50. Here is the method:
Human PAF Receptor Binding Assay
The platelets were sampled from healthy males by an ordinary method and suspended in a binding buffer [10 mM phosphate-buffered saline (pH 7.0) containing 0.1 w/v % of BSA and 0.9 mM of CaCl2) to form a suspension having a concentration of 10^8 /460 μl. 20 μl of a solution of the test compound in the binding buffer was placed in a polypropylene tube and then 460 μl of the platelet suspension was added thereto. The mixture was subjected to a vortex treatment and then incubated at 37° C. for 6 min. 20 μl of a solution of ^3 H-PAF in the binding buffer (final ^3 H-PAF concentration: 0.6 to 1 nM) was added thereto and the mixture was incubated for 6 min. 3 ml of a washing solution (saline containing 0.1 w/v % of BSA) cooled with ice was added thereto to terminate the reaction. The reaction mixture was filtered by suction through a glass filter (Whatman GF/C). The glass filter was dried and the radioactivity thereof was determined with a liquid scintillation counter.
The inhibition % was calculated according to the following equation and IC50 so was determined by interpolation from the figure. [formula] wherein: total binding: dpm obtained when the concentration of the medicine or PAF is 0,
non-specific binding: dpm obtained when 10^-5 M of cold PAF was added.

In the next data set the test system is lethal activity of PAF. Put plainly: Preventive effect against the lethal activity of PAF. To be noted: 15 minutes before PAF i.v.; for number of dead mice / number of mice (Survival rate): after one hour; for Survival rate: survival after one hour. Format: in vivo, ICR male mice. How it is done: Preventive Effect Against the Lethal Activity of PAF:
A physiological saline or the test compound was given to ICR male mice weighing around 30 g by intravenous injection. After 15 minutes, 100 wg/kg of PAF was given to them by intravenous injection. Life and death of them were examined after one hour and the survival rate was determined.
The survival rate is given by percentage. The denominator of the fraction
is the number of the mice and the numerator is the number of the dead

For data set [2], the system named is blood pressure drop induced by PAF. The data set is described as follows: Action on the blood pressure drop induced by PAF. Format: in vivo, F344 rats. To be noted: Rattus norvegicus, iv, 0.05 h; 0.01 mg/kg, i.v., three minutes after 0.5 μg/kg PAF; ratio of blood pressure rise to drop; read-out: Recovery rate. Here is the method: Action on the Blood Pressure Drop Induced by […]
Cannulae were inserted into the carotid and the jugular of each of F344 rats anesthetized with Pento (50 mg/kg, i. p.). The blood pressure was determined at the carotid and 0.5 ml/kg of PAF or the test compound was given through the jugular. Three minutes after the injection of 0.5 μg/kg of PAF, the test compound was given and the antagonism thereof was evaluated.
The recovery rate shown in Table 4 is the ratio of the blood pressure rise by the test compound to the drop thereof.

Data set [3] can be described thus: Determination of stability in aqueous solution. The format is physicochemical. To be noted: pH 7.4, 37° C., 0.5M sodium phosphate; read-out: Half-value period of disappearance due to hydrolysis (t1/2) (converted). Here is the method:
Determination of Stability in Aqueous Solution
These compounds were unstable in a neutral or alkaline aqueous solution mainly due to the hydrolysis reaction of the N-acetyl or N-benzoyl group. The relationships between the pH and decomposition rate of several compounds were examined to find that they have the same pattern. The decomposition rate constant under conditions (pH 7.4, 37° C.) where they were relatively easily decomposed was determined and the stabilities of the compounds were compared with one another.
9 parts by volume of a buffer solution (0.5M sodium phosphate, pH 7.4) was added to 1 part by volume of an aqueous sample solution (1 mg/ml) and the mixture was kept at 37° C. The sampling was conducted at appropriate time intervals and the residual rate of an unreacted compound was determined by reversed phase high-performance liquid chromatography. Since the decomposition rate of most of the compounds can be approximately represented by the first-order decomposition rate equation, the decomposition rate constant was determined by the least squares method.

T1 sequence (P25105 whole entry): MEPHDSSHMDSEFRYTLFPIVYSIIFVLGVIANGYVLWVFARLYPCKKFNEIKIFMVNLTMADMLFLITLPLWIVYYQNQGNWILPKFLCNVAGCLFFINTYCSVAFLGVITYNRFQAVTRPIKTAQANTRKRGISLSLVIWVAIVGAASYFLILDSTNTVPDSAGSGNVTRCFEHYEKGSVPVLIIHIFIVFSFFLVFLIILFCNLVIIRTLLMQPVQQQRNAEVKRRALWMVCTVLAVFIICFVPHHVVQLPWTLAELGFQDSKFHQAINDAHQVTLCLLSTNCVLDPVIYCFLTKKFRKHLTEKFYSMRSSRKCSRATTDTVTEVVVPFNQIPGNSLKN

As for `CCCCCCCCCCCCCCCCCCNC(=O)OC1CCN(C(=O)OCC(COC(=O)N(Cc2cccc[n+]2CC)C(=O)c2ccccc2OC)OC)CC1` (stereo not shown) [Example 15, 1-Ethyl-2-[N-(2-methoxy)benzoyl-N-{2-methoxy-3-(4-octadecylcarbamoyloxy)piperidinocarbonyloxypropyloxyl}carbonyl]aminomethylpyridinium chloride], the half-inhibitory concentration (IC50) amounted to 80 nM in data set [1] and 0.19 nM on Human PAF Receptor. For the same molecule, the “number of dead mice / number of mice (Survival rate)” value was 2/7 in the data set with lethal activity of PAF (0.03 mg/kg i.v.), 3/7 with lethal activity of PAF (0.1 mg/kg i.v.) and 0/7 in the data set on lethal activity of PAF (0.3 mg/kg i.v.). For the same molecule, the figures for the Survival rate with lethal activity of PAF (0.03 mg/kg i.v.), with lethal activity of PAF (0.1 mg/kg i.v.) and in the data set on lethal activity of PAF (0.3 mg/kg i.v.) were 71.4%, 57.1% and 100%, respectively. In addition, the inhibition in vivo at 0.01 mg/kg in data set [2] was determined as 94.6%. In addition, in data set [3], the half-life was 24.4 h.
